Test results from patent US8481678B2, “Peptide-based tooth whitening reagents” (E I du Pont de Nemours and Company, priority 2009, dated 2013).
Each block holds one molecule with its values, some of them ahead of it. Where no end group is shown, it is not given here. The star is where a group is joined. Biotin = O=C1N[C@H]2[C@H](CS[C@H]2CCCCC(=O)*)N1

What was measured:
[1] = Phage ELISA, tooth enamel-binding assay (unpolished enamel blocks); design: species or system bovine; conditions: phage ELISA on unpolished enamel, over 10^10 pfu phage; no-phage control 0.193
Method: (§1) A total of 11 selected phage candidates (Example 3) were used in a phage ELISA experiment. Purified phage lysates were used for binding to the enamel blocks using an anti-M13 phage antibody conjugated to horseradish-peroxidase, followed by the addition of chromogenic agent TMB, obtained from Pierce Biotechnology (Rockford, Ill.). The plates were read at A450 nm.
(§2) For each phage candidate to be tested, the polished and unpolished enamel blocks were incubated for 1 h at room temperature with 200 μL of blocking buffer, consisting of 2% non-fat dry milk (Schleicher & Schuell, Inc.) in TBS. […] The tube was rinsed 6 times with wash buffer consisting of TBST-0.05%. The wells were filled with 200 μL of TBST-0.5% containing 1 mg/mL BSA and then 10 μL (over 10^10 pfu) of purified phage stock was added. The samples were incubated at room temperature for 60 min with slow shaking. The non-binding phage was removed by washing 6 times with TBST-0.5%. […] The conjugate solution was removed and was washed 6 times with TBST-0.5%. […] “BoEn P” means bovine polished enamel and BoEn means bovine enamel.

[2] = 20 μM biotinylated peptide; mean of at least three replicates; no-peptide control 0.066
Source text: Enzyme-linked immunosorbent assay (ELISA) was used to evaluate the cellulose acetate coated iron oxide particle-binding affinity of the biopanning selected peptide candidates (Example 6; biotinylated peptides phage ID: CA-1 to CA-4). The identified peptides were synthesized using a standard solid-phase synthesis method (see U.S. patent application Ser. No. 11/251/715). All peptides were modified to contain a biotinylated lysine residue at the C-terminus of the amino acid binding sequence for detection purposes (Table 6).
The cellulose acetate-coated iron oxide particles were dispersed in water at 2.5 mg per mL. […] The particle dispersion (1 mL each) was then centrifuged for 2 min at 5000 rpm, the aqueous was removed by aspirating it out of each tube. The tubes were incubated in SUPERBLOCK® blocking buffer (Pierce Chemical Company, Rockford, Ill.; Prod. #37535) for 1 hour at room temperature (˜22° C.), followed by 3 washes with TBST (TBS in 0.05% TWEEN® 20). Then tubes were then rinsed 3 times with wash buffer consisting of TBST-0.05% using the same centrifugation and aspiration methods. Peptide binding buffer consisting of 20 μM biotinylated peptides in TBST and 1 mg/mL BSA was added to the particles and incubated for 1 hour at room temperature (˜22° C.), followed by 6 TBST washes. Then, the streptavidin-alkaline phosphatase (AP) conjugate (Pierce Chemical Co., Rockford, Ill.) was added to each well at standard concentration and incubated for 1 hour at room temperature, followed by 6 times of washes with TBST. All particles were then transferred to new tubes and then the color development and the absorbance measurements were performed following the manufacturer's standard protocols.

[3] = Phage ELISA, polished enamel-binding assay; design: species or system bovine; conditions: phage ELISA on polished enamel, over 10^10 pfu phage; no-phage control 0.112
Method: as §1, §2

[4] = tested on: pellicle-coated enamel substrates; conditions: 20 μM synthetic biotinylated peptide, 30 min at 37° C.; normalized to DenP03; three replicates; no peptide −0.001
Method: A total of 20 synthetic peptides were manufactured using sequences obtained from Table 14. Peptides were obtained from Synbiosci (Livermore, Calif.) and included an additional SSRP sequence (SEQ ID NO: 151) at the N-terminus and biotin labeled lysine at the C-terminus.
Enamel substrates were cut to approx. 7 mm squares and mounted on wax mounting for incubation in the mouth for 30 min to form a pellicle coated surface. The pellicle-coated enamel substrates were removed from the wax backing and placed in well plates with the pellicle surface exposed as in Example 1. Each pellicle-coated substrate was incubated for 1 h at room temperature (˜22° C.) with 1 mL of blocking buffer, consisting of 1 mg/mL BSA in PBST (Pierce BupH™ #28372 with 0.1% TWEEN® 20). The blocking buffer was removed by aspirating the liquid out of each well. The tube was rinsed 2 times with wash buffer consisting of PBST. The wells were filled with 500 μL of 20 μM peptide solution which was prepared by diluting in blocking buffer. The samples were incubated for 30 min with slow shaking at 37° C. The non-binding peptide was removed by washing 6 times with PBST. Then, 500 μL of horseradish peroxidase/streptavidin conjugate (Pierce #22127), diluted 1:2000 in PBST, was added and incubated for 1 h at room temperature. The conjugate solution was removed and was washed 4 times with PBST.
Each enamel substrate was removed from the well and washed again in a 15-mL test tube with 10 mL of PBST. Each enamel substrate was then mounted in a clean well plate with only the enamel surface exposed. A 1:1 solution of TMB substrate and H2O2 (200 μL), obtained from Pierce Biotechnology (Rockford, Ill.) was added to each well and the color was allowed to develop for between 10 to 20 min, typically for 15 min, at room temperature (˜22° C.). Then, 100 μL of solution from each well was transferred to a 96-well reading plate containing stop solution (100 μL of 2 M H2SO4) in each well. The A450 was measured using a microplate spectrophotometer (Molecular Devices, Sunnyvale, Calif.). […] Each sequence was tested with three replicate enamel coated pellicle substrates.

[5] = tested on: pellicle-coated enamel substrates; conditions: range of peptide concentrations, 2 h at 37° C., 4-MUP fluorescence; calculated from Scatchard plots
Source text: The pellicle-coated enamel substrates were removed from the wax backing and placed in well plates with the pellicle surface exposed as in Example 1. […] The blocking buffer was removed by aspirating the liquid out of each well. The tube was rinsed 2 times with wash buffer consisting of PBST. […] The non-binding peptide was removed by washing 6 times with PBST. […] The conjugate solution was removed and was washed 4 times with PBST.
Each enamel substrate was removed from the well and washed again in a 15-mL test tube with 10 mL of PBST. Each enamel substrate was then mounted in a clean well plate with only the enamel surface exposed.

[6] = Whitening of tea-stained bovine enamel with peptide reagent and cellulose acetate-coated TiO2 (CIELAB colour); design: key to L* / a* / b*: CIELAB coordinates: L* lightness, a*/b* chromaticity (D65 illuminant); key to ΔE: ΔE = ((ΔL*)²+(Δa*)²+(Δb*)²)^½ vs tea-stained baseline
Method: The peptide-based reagent comprising multiple tooth-binding peptides, spacers, and cellulose acetate-binding peptide sequences was prepared as described in Example 8.
The cellulose acetate-coated titanium dioxide was prepared as described in Example 10. The peptide-based reagent described in Example 8 (SEQ ID NO:116) was used. The peptide-based reagent was diluted with 25 mM Tris-HCl buffer including 150 mM NaCl at pH 7.5 to give a final concentration of 5 μM. The cellulose acetate-coated titanium dioxide dispersion described in Example 10 was further diluted from 20% solids to 0.25% solids in 25 mM Tris-HCl buffer at pH 7.5.
Bovine Teeth (SE Dental, Baton Rouge, La.) were used as model substrate to test with the engineered peptide-based reagent designed to bind to tooth enamel (SEQ ID NO:116). The teeth were prepared by cleaning in detergent and then disinfecting in 70% Ethanol prior to use. Each clean tooth was measured for color using an X-RITE® SP64 Spectrometer to collect a reflectance spectrum and CIELAB color coordinates, L*, a* and b*. A staining solution was made with 100 mL of boiling water exposed to 1 Lipton tea bag for 5 minutes. After the solution cooled to room temperature, each tooth was allowed to incubate in the staining solution for approximately 3 days. The teeth were removed and rinsed with water and dried. Color measurement was obtained for each tooth.
The stained bovine enamel substrates were exposed to either the 5 μM solution of peptide or as a control, the buffer used to make the peptide solution. This exposure was for 30 minutes with gentle agitation in a vortex mixer. Following peptide binding, the teeth were removed and rinsed in buffer and placed in a 0.25% solution of cellulose acetate coated titanium dioxide for 30 minutes. The teeth were removed, rinsed in buffer, blotted dry and measured for color using the X-RITE® spectrometer. The teeth were placed back in the same pigment solutions for an additional 2.5 hr and removed, rinsed and measured again.
The color intensity at each step mentioned above (e.g., to determine the change in tooth whitening) was measured using a X-RITE® SP64™ Sphere Spectrophotometer (X-Rite, Inc., Grandville, Mich.), by placing the front of the bovine tooth (treated or control) sample into a sample holder and calculating L*, a* and b* parameters representing the photometer response using a standard D65 illuminant. An initial baseline values of L*, a* and b* were measured prior to peptide treatment for the tea-stained bovine samples. All measurements are the average of three individual determinations. Delta E values are calculated using equation 1 below: Delta E=((L*1−L*2)^2+(a1−a2)^2+(b1−b2)^2)^1/2 (1) where L*=the lightness variable and a* and b* are the chromaticity coordinates of CIELAB colorspace as defined by the International Commission of Illumination (CIE) (Minolta, Precise Color Communication—Color Control From Feeling to Instrumentation, Minolta Camera Co., 1996). Larger Delta E value is indicative of an increase in whiteness. In one embodiment, a larger Delta E for the treatment group (peptide-based reagent+polymer coated white colorant) versus the Delta E of the peptide-free control is used to determine the relative increase in whiteness.

[7] = after additional 2.5 hr in CA-TiO2

Molecule: AANPHTEWDRDAFQLAMPPK (Tooth-binding peptide) [BoEn 1]
O.D. at 450 nm [1]: 1.402

Molecule: ATTPPSGKAAAHSAARQKGN-K-biotin-NH2 [CA-1]
O.D. at 405 nm [2]: 0.269

Molecule: DTIHPNKMKSPSSPL-K-biotin-NH2 [CA-2]
O.D. at 405 nm [2]: 0.207

Molecule: LNDQRKPGPPTMPTHSPAVG (Tooth-binding peptide) [BoEn 5]
O.D. at 450 nm [1]: 0.944

Molecule: NGNNHTDIPNRSSYTGGSFA-K-biotin-NH2 [CA-3]
O.D. at 405 nm [2]: 0.279

Molecule: NTCATSPNSYTCSN (Tooth-binding peptide) [BoEn 6]
O.D. at 450 nm [1]: 2.38

Molecule: SDCTAGLVPPLCAT (Tooth-binding peptide) [BoEn 7]
O.D. at 450 nm [1]: 0.892

Molecule: SDETGPQIPHRRPTW-K-biotin-NH2 [CA-4]
O.D. at 405 nm [2]: 0.141

Molecule: SSRPHKNENIMQYNVNDRWHITPAK(Biotin) [DenP32-A]
O.D. at 450 nm (normalized) [4]: 1.135 | MB50 [5]: 25 µM

Molecule: SSRPTTYHYKNIYQESYQQRNPAVK(Biotin) [DenP3-A]
O.D. at 450 nm (normalized) [4]: 1.000 | MB50 [5]: 28 µM

Molecule: VGTMKQHPTTTQPPRVSATN (Tooth-binding peptide) [BoEn 9]
O.D. at 450 nm [1]: 0.568

Molecule: YSETPNDQKPNPHYKVSGTK (Tooth-binding peptide) [BoEn 10]
O.D. at 450 nm [1]: 3.942

B1: Engineered Peptide: recombinant triblock reagent: two tooth-binding peptides (SEQ 108), spacers, two cellulose acetate-binding peptides (SEQ 118), His-tag; applied with cellulose acetate-coated TiO2 (protein)
chain: PHMASMTGGQQMGSYSETPNDQKPNPHYKVSGTKGPEEAAKKEEAAKKPAYSETPNDQKPNPHYKVSGTKGSGGGGSGSGGGGSVRPNLHRKAKAKPDHKQSENRKVPFYSHGSSGGGGVRPNLHRKAKAKPDHKQSENRKVPFYSHGSSGGGHHHHHH
modifications: applied with cellulose acetate-coated TiO2; Synthetic peptide-based tooth whitening reagent
ΔE ([6]; 5 μM peptide 30 min + 0.25% CA-TiO2 30 min, versus tea-stained baseline, buffer control 3.25): 6.68 | a* ([6]; 5 μM peptide 30 min + 0.25% CA-TiO2 30 min, tea-stained baseline 3.96396): 1.635 | b* ([6]; 5 μM peptide 30 min + 0.25% CA-TiO2 30 min, tea-stained baseline 22.7952): 18.0418 | L* ([6]; 5 μM peptide 30 min + 0.25% CA-TiO2 30 min, tea-stained baseline 67.0271): 71.1068 | L* [6, 7]: 73.9558 | a* [6, 7]: 1.496 | b* [6, 7]: 18.0851 | ΔE ([6]; after additional 2.5 hr in CA-TiO2, versus tea-stained baseline, buffer control 3.80): 8.73

Next, values leading:

O.D. at 450 nm [3]: 0.641
Molecule: EPPTRTRVNNHTVTVQAQQH (Tooth-binding peptide) [BoEn P2]

O.D. at 450 nm [3]: 0.665
Molecule: GYCLRGDEPAVCSG (Tooth-binding peptide) [BoEn P3]

O.D. at 450 nm [3]: 0.797
Molecule: NFCETQLDLSVCTV (Tooth-binding peptide) [BoEn P5]

O.D. at 450 nm [3]: 0.83
Molecule: NTCQPTKNATPCSA (Tooth-binding peptide) [BoEn P6]

O.D. at 450 nm [3]: 2.02
Molecule: THNMSHFPPSGHPKRTAT (Tooth-binding peptide) [BoEn P8]
